# From patent publication US10596145B2, “Heterocyclic flavone derivatives, compositions, and methods related thereto” (Emory University, priority 2012, dated 2020)
# Entries after “also recorded” stand apart in the source; their conditions may differ.
# Columns and labels:
# Akt = experiment: Downstream Akt activation in mouse brain (p-Akt immunoblotting, p-Akt 473 ELISA); type: in vivo; conditions: 2.5 mg/kg/day oral, 3 weeks
# Method: PathScan Phospho-Akt1 (Ser473) Sandwich ELISA kit was purchased from Cell Signaling (Cat. #7160). 100 μl sample in sample diluent (supplied in the kit) was added to each well and incubated overnight at 4° C. After 4× wash with 200 ul wash buffer (supplied in the kit), 100 ul/well detection antibody was added and incubated for 1 hour at 37° C. After 4× wash, 100 μl of HRP-linked secondary antibody (supplied in the kit) was added and incubated for 30 minutes at 37° C. After a final wash, 100 μl of TMB substrate was added to each well and incubated for 10 minutes at 37° C. The reaction was stopped by adding 100 μl/well stop solution. Record the values of each well using microplate reader at 450 nm and 650 nm. The optical density was determined by the subtraction of the reading at 650 nm from the reading s at 450 nm.
# (§1) Male C57BL/6 mice aged of two months were administrated orally with 4′-DMA-7,8-DHF derivatives at a single dose of 1 mg/kg for 4 h. The control mice were injected with saline. The mice were sacrificed and brains were homogenated and ultracentrafuged. The supernatant (40 μg) was employed for SDS-PAGE and immunoblotting analysis with indicated antibodies, respectively. Male C57BL/6 mice aged of two months were administrated orally with compound (i) or (m) at the dose of 5 mg/kg/day each and compound o or p at the dose of 2.5 mg/kg/day each for 21 days. BrdU (100 mg/kg) was i. p. injected two hours before the TrkB agonist treated animals were sacrificed and the hippocampal section lysates were analyzed by immunoblotting with p-TrkB and total TrkB antibodies, p-AKT ELISA.
# HepG2 cells = experiment: In vitro cytotoxicity assay with HepG2 cells; type: cell-based; conditions: micronucleus and comet assays
# Method: HepG2 cells were treated with various concentrations of flavonoids for 24 h. The drug-treated cells were subjected to trypan blue exclusive assay. Data are presented as mean±SEM. (n=3, ***P<0.0001 vs vehicle).
# In vitro and in vivo ADMET (ADME plus toxicity) of certain compounds were examined. […] Micronuclei formation is an important endpoint in genotoxicity study. […] Next, a Comet assay was performed with 100 μM drug-treated HepG2 cells. As a positive control, etoposide, a topoisomerase inhibitor, which causes DNA strand breaks was used.
# hERG = hERG (Homo sapiens, UniProt Q12809); experiment: hERG inhibition assay
# Chain of hERG (Q12809 whole entry): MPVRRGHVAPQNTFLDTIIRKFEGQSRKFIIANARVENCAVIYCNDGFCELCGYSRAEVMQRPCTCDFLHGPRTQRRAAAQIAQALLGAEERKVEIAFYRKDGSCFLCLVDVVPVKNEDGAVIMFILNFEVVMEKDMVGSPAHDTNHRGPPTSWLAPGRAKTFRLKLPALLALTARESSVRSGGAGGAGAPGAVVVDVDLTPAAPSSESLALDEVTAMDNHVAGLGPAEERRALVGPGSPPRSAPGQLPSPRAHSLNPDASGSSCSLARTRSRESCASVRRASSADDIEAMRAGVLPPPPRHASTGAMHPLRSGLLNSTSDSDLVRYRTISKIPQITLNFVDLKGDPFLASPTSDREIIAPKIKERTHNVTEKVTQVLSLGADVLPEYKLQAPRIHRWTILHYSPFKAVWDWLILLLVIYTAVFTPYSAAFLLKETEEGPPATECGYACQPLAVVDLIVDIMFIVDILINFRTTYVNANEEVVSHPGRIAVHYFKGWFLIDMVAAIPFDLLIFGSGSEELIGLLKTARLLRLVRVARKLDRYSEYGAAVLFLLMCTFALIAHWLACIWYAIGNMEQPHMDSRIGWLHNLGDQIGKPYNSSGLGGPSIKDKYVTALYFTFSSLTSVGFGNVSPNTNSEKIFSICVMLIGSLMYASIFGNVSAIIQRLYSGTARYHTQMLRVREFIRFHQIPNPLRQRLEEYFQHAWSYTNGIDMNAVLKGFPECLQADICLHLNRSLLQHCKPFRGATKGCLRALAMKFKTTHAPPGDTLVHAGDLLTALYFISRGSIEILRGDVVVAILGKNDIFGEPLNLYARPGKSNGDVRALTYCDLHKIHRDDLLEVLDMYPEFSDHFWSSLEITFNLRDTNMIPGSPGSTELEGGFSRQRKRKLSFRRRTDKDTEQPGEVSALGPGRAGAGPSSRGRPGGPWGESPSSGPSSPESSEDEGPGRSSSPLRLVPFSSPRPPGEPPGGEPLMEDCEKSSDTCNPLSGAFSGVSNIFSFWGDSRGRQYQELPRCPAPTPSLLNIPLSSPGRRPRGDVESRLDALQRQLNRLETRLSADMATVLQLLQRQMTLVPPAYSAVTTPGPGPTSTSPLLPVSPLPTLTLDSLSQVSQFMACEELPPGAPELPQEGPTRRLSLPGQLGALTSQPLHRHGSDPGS
# Method: (§2) At 30 μM, the inhibition patterns contained similar trends. To test the possible cardiovascular toxicity, hERG inhibition triggered by compound o was examined.
# [1] = Human liver microsomal stability assay; type: in vitro ADME; conditions: human liver microsomes, 1 h incubation
# Excerpt: To explore these compounds' in vitro ADMET profiles, we conducted numerous in vitro assays.
# C57BL/6J mice = experiment: Forced swim test; type: in vivo, mouse
# Method: Male C57BL/6J mice (6 mice/group) were orally administrated by gavage with 5 mg/kg compound (m) or compound (i) and vehicle solvent saline for 21 days and subjected to a forced swim test (6 min, immobility recorded in the last 4 min). Data are presented as mean±SEM. (n=6, ***P<0.0001 vs vehicle, Student t-test).
# Forced swim test. Male C57BL/6J mice (8 mice/group) were orally administrated by gavage with 2.5 mg/kg compound o or compound p and vehicle solvent saline for 21 days and subjected to a forced swim test (6 min, immobility recorded in the last 4 min). […] Data are presented as mean±SEM.
# Adult male mice (2-3 months old) were randomly submitted to a forced swim test without a preswim. Test compounds were orally administrated by gavage for 21 days. The mice were allowed to adapt to the test room for 2 days. The mice were placed in a clear glass cylinder with a diameter of 16 cm, half-filled with clear water at 24° C.
# TrkB = target: T1, TrkB (Mus musculus, UniProt P15209); experiment: TrkB phosphorylation in mouse brain after oral administration (immunoblotting, immunohistochemistry); type: in vivo
# T1 construct: from tissue; host or cells: mouse brain (hippocampus, cortex), C57BL/6
# T1 sequence (P15209 32-821): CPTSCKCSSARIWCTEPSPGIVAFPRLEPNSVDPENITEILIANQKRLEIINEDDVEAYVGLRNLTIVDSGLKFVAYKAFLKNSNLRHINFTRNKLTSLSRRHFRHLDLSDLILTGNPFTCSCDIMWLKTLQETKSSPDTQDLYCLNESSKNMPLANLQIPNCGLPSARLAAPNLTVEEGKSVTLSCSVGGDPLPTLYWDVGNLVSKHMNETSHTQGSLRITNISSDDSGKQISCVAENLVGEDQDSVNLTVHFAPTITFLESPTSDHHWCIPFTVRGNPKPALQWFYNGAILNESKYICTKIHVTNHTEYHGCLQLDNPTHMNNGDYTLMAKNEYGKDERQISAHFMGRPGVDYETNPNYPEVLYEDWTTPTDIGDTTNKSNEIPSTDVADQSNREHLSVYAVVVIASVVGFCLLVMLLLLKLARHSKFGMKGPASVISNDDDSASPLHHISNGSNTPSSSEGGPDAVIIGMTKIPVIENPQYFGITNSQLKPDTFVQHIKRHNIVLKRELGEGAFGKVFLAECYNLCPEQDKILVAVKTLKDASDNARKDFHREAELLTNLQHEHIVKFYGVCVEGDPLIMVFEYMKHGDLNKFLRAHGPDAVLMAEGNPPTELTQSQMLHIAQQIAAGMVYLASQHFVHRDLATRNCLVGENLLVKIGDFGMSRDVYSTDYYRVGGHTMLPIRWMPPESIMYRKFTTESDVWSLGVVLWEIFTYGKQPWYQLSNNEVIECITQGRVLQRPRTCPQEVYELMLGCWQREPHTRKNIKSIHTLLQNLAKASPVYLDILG
# Method: One mg/kg of various indicated compounds were orally administrated into C57 BL/6J mice and TrkB phosphorylation and its downstream signaling cascades including Akt and MAPK in the hippocampus of mouse brain were analyzed by immunoblotting at 4 h. […] The downstream p-Akt and p-MAPK activity coupled to the TrkB activation patterns.
# Time course assay with 4′-dimethylamino-7,8-imidazole flavone. One mg/kg of compound (i) and compound (m) were orally administrated into C57 BL/6J mice and TrkB phosphorylation and its downstream signaling cascades including Akt in mouse brain were analyzed by immunoblotting at various time points. TrkB activation by compound m peaked at 4 h, whereas the maximal TrkB activation by compound i in mouse brain occurred at 1-2 h. Arrows indicate the p-TrkB in mature glycosylated or unglycosylated forms (top panels). The downstream Akt activation pattern tightly correlated with the upstream TrkB activation.
# as §1
# Brain tissues were fixed in 4% paraformaldehyde overnight followed by paraffin embedding. Sections of 6 μm were cut. For immunohistochemical staining, brain sections were deparaffinized in xylene and rehydrated in graded alcohols. Endogenous peroxidase activity was blocked by 3% hydrogen peroxide for 5 min and all slides were boiled in 10 mM sodium citrate buffer (pH 6.0) for 10 min. Phosphorylated TrkB 816 and TrkB were detected using specific antibodies. Paraffin section were deparaffinized in xylene and rehydrated gradient ethanol solution. Samples were boiled in 10 mM sodium citrate buffer for 20 min for antigen retrieval purpose. Brain sections were incubated with anti-TrkB (BD Biosciences, San Jose, Calif.) 1:50, p-TrkB 1:300 dilution. Secondary antibody was applied using anti-rabbit-Alexa 594 (red), anti-mouse-fluorescein isothiocyanate (FITC) (green). DAPI (blue) was used for nuclear staining.
# CYP1A2 = target: T2, CYP1A2 (Homo sapiens, UniProt P05177); experiment: CYP screen inhibition; type: in vitro ADME
# T2 sequence (P05177 1-516): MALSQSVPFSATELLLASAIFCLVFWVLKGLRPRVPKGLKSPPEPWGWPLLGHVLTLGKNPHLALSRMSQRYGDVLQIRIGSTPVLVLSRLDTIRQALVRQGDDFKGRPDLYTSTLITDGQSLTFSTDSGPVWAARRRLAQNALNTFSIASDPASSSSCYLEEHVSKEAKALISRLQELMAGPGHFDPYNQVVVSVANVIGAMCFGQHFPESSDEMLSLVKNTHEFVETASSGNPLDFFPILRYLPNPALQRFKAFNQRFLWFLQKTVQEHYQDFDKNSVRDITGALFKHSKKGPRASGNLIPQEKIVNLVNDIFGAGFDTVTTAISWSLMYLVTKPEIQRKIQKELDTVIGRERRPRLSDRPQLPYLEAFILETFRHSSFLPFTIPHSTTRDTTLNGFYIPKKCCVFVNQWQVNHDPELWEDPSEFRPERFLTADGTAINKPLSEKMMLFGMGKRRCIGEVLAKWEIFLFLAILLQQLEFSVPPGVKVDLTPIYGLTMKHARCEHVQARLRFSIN
# Method: as §2
smiles,measurement,setting,value
"Cc1nc2ccc3c(=O)cc(-c4ccc(N5CCCC5)cc4)oc3c2[nH]1 [compound o, 2-methyl-8-(4-(pyrrolidin-1-yl)phenyl)chromeno[7,8-d]imidazol-6(1H)-one]",Akt activation (quantitative p-Akt ELISA),Akt,notably activated Akt
same,cytotoxicity or genotoxicity (overall conclusion),HepG2 cells,negligible cytotoxicity or genotoxicity
same,hERG inhibition,hERG,suboptimal; also recorded: did not possess any concentration-dependent inhibition activity of hERG
same,remaining unchanged after incubation,[1],25.4%
same,reduction of immobility in forced swim test compared to vehicle control,"C57BL/6J mice; 2.5 mg/kg oral once a day, 3 weeks",45%
same,immobility in forced swim test,"C57BL/6J mice; 2.5 mg/kg oral, 21 days",active in both FST and TST depression behavioral assays; also recorded: significantly decreased the immobility
same,TrkB activation in mouse brain,"TrkB; 1 mg/kg oral, hippocampus, at 2 h",triggers TrkB activation in mouse brain
same,TrkB phosphorylation after chronic treatment (immunoblotting),"TrkB; 2.5 mg/kg/day oral, 21 days",markedly activated TrkB receptor; also recorded: evidently elevated TrkB phosphorylation
same,"TrkB phosphorylation in hippocampus (immunohistochemistry, anti-p-TrkB 816)","TrkB; 2.5 mg/kg/day oral, chronic",elevated TrkB phosphorylation in hippocampus
same,inhibition at 3 µM,CYP1A2,~27.3%
